Patent publication US8217000B2, “Method for elevating prolactin in mammals” (Cara Therapeutics, Inc., priority 2006, dated 2012)
Where a name gives a salt, the structure may show the parent alone. Non-standard residues stand in square brackets, D forms with d. Residues, ends and D or L forms follow the SMILES beside them. *: point of attachment. NH(4-picolyl) = c1cc(CN*)ccn1; dNle = CCCC[C@@H](N)C(=O)O

Assay: Plasma pharmacokinetics of CR665 after single IV infusion in human subjects
Conditions: for half-life / clearance / Vd / AUC(0-t) / AUC(0-inf) / Cmax / MRT / Tmax: human, plasma; for clearance: CL; for AUC(0-t): AUC0-t; for AUC(0-inf): AUC0-∞; for MRT: MRTint; for Tmax: median
Description: This clinical study was conducted as a double blind, placebo controlled, ascending single intravenous (IV) dose, sequential group study. This study was double blind and placebo controlled in order to avoid bias in the collection and evaluation of data during its conduct. […] In each group, subjects received CR665 or placebo. Doses were administered as a single constant rate IV infusion over 1 hour (part A) or 5 minutes (part B) on the morning of Day 1. Doses were administered in an escalating manner following satisfactory review of the safety data and pharmacokinetic data from the lower dose levels. There was a minimum of 6 days between dose escalations to allow sufficient time for an adequate safety review.
Plasma and urine samples for the analysis of CR665 and N oxide metabolite were prepared by solid phase extraction. The centrifuged eluates were quantified by liquid chromatography with tandem mass spectrometric detection (LC MS/MS). The lower limit of quantification was 1 ng/mL.
For pharmacokinetic assessments, blood samples (1×3 mL) were taken from the contralateral forearm vein(s) at the following times: Pre-dose, 15 minutes, 30 minutes, 45 minutes, 1 hour (immediately prior to the end of infusion), 1 hour 5 minutes, 1 hour 10 minutes, 1 hour 15 minutes, 1.5, 2, 2.5, 3, 4, 6, 8, 12, 16, 24, 36 and 48 hours after the start of the infusion). An indwelling cannula (Venflon®; BOC Ohmeda AB, Sweden) was used for all blood collection pre-dose and up to at least 12 hours after the start of the infusion. Otherwise, samples were collected using venipuncture. Blood samples were collected into pre-chilled 3 mL K3EDTA Vacutainer™ tubes (Becton Dickinson UK, Ltd., Oxford) and, after mixing, were placed in a cool box containing crushed ice/water. The samples were centrifuged, within 30 minutes of collection, at 1500 g for 10 minutes at approximately 4° C. For each sample, the separated plasma was transferred into two 5 mL suitably labeled polypropylene tubes, and stored immediately at approximately −20° C. Plasma samples were analyzed for CR665 using liquid chromatography with tandem mass spectrometric detection.
The pharmacokinetic analysis was conducted using WinNonlin Enterprise Version 4.0.1.
Pharmacokinetic parameters were determined from the plasma and urine, concentrations of CR665 and the N-oxide metabolite using non compartmental procedures.
Dose and body weight normalized values (norm) were determined for AUC0-t, AUC0-∞, Cinf and Cmax. Body weight normalized values [norm] were determined for Vz, Vss, CL and CLR.
The pharmacokinetic analysis was conducted using model independent methods as implemented in WinNonlin software, based on plasma concentrations of CR665 from those subjects who have received CR665 and have evaluable plasma concentration-time profiles.
The following plasma pharmacokinetic parameters were determined for CR665: • Cmax Maximum plasma concentration • tmax Time of maximum plasma concentration • t1/2z Terminal half-life=ln(2)/λz • AUC0-1 Area under the plasma concentration-time curve from time zero to time t (time of last quantifiable plasma concentration) • AUCinf Area under the plasma concentration-time curve from time zero to infinity calculated as [AUC0-t+(Clast/λz)] where Clast is the estimated concentration at the last quantifiable concentration curve. • λz Terminal-phase rate constant, also known as Kel • CL Total body clearance=Dose/AUCinf • Vz Volume of distribution based on terminal phase calculated as Vz/F=Dose/λz*AUCinf
Individual elapsed sampling times were used in the pharmacokinetic analysis. Cmax and tmax were obtained directly from the experimental observations. For the purpose of calculating AUC0-t, when two consecutive plasma concentrations below the lower limit of quantification (LLOQ) were encountered after tmax, all subsequent values were excluded from the analysis.

[1] = female, iv, 0.06 mg/kg, females, 5-minute IV infusion, geometric mean
[2] = female, iv, 0.24 mg/kg, females, 1-hour IV infusion, geometric mean
[3] = females, 0.24 mg/kg dose level as printed, Part B text
[4] = male, iv, 0.015 mg/kg, males, 1 hour IV infusion, geometric mean
[5] = male, iv, 0.03 mg/kg, males, 5-minute IV infusion, geometric mean
[6] = male, iv, 0.03 mg/kg, males, 1 hour IV infusion, geometric mean

Compound: CCCC[C@@H](NC(=O)[C@@H](Cc1ccccc1)NC(=O)[C@H](N)Cc1ccccc1)C(=O)N[C@H](CCCNC(=N)N)C(=O)NCc1ccncc1 [CR665, D-phenylalanyl-D-phenylalanyl-D-norleucyl-N-(4-pyridinylmethyl)-D-argininamide, acetate salt] (H-[dF][dF][dNle][dR]-{NH(4-picolyl)})
- half-life (both, intravenous, 0.24 mg/kg, Mean terminal elimination half-life, male and female subjects, 1-hour infusion): 72 to 84 min
- clearance (female, intravenous, 0.06 mg/kg, geometric least squares mean, females, 5-minute infusion): 544 mL/min
- half-life (female, intravenous, 0.06 mg/kg, Mean terminal elimination half life, females, 5-minute infusion): ~48 min
- Vd (female, intravenous, 0.06 mg/kg, Vss, geometric least squares mean, females, 5-minute infusion): 14.1 L
- Vd (female, intravenous, 0.06 mg/kg, Vz, geometric least squares mean, females, 5-minute infusion): 45.7 L
- half-life (female, intravenous, 0.06 mg/kg, t1/2, geometric least squares mean, females, 5-minute infusion): 56.8 min
- clearance (female, intravenous, 0.24 mg/kg, geometric least squares mean, females, 1-hour infusion): 573 mL/min
- half-life (female, intravenous, 0.24 mg/kg, Mean terminal elimination half-life, females, 1-hour infusion): 72 min
- Vd (female, intravenous, 0.24 mg/kg, Vss, geometric least squares mean, females, 1-hour infusion): 17 L
- Vd (female, intravenous, 0.24 mg/kg, Vz, geometric least squares mean, females, 1-hour infusion): 50.2 L
- half-life (female, intravenous, 0.24 mg/kg, t1/2, geometric least squares mean, females, 1-hour infusion): 63 min
- AUC(0-t) [1]: 120 ng·h/mL
- AUC(0-inf) [1]: 122 ng·h/mL
- clearance [1]: 544 mL/min
- Cmax [1]: 520 ng/mL
- MRT [1]: 25.1 min
- Vd (female, iv, 0.06 mg/kg, Vss, females, 0.06 mg/kg, 5-minute IV infusion, geometric mean): 13.7 L
- Vd (female, iv, 0.06 mg/kg, Vz, females, 5-minute IV infusion, geometric mean): 39.2 L
- half-life (female, iv, 0.06 mg/kg, t1/2, females, 5-minute IV infusion, geometric mean): 50 min
- Tmax (female, iv, 0.06 mg/kg, females, 5-minute IV infusion): 5 min
- AUC(0-t) [2]: 440 ng·h/mL
- AUC(0-inf) [2]: 442 ng·h/mL
- clearance [2]: 557 mL/min
- Cmax [2]: 384 ng/mL
- MRT [2]: 30.9 min
- Vd (female, iv, 0.24 mg/kg, Vss, females, 0.24 mg/kg, 1-hour IV infusion, geometric mean): 17.2 L
- Vd (female, iv, 0.24 mg/kg, Vz, females, 1-hour IV infusion, geometric mean): 55.7 L
- half-life (female, iv, 0.24 mg/kg, t1/2, females, 1-hour IV infusion, geometric mean): 69.6 min
- Tmax (female, iv, 0.24 mg/kg, females, 1-hour IV infusion): 45 min
- AUC0-t (norm), ratio of geometric least squares means 5-minute:1-hour (females): 1.04
- AUC0-∞ (norm), ratio of geometric least squares means 5-minute:1-hour (females): 1.05
- CL, ratio of geometric least squares means 5-minute:1-hour (females): 0.950
- Cmax (norm), ratio of geometric least squares means 5-minute:1-hour (females): 5.27
- Cmax, fold higher for the 5-minute compared to the 1-hour infusion (females): 5.3 fold
- MRTint, ratio of geometric least squares means 5-minute:1-hour (females): 0.864
- Vss, ratio of geometric least squares means 5-minute:1-hour (females): 0.832
- Vz, ratio of geometric least squares means 5-minute:1-hour (females): 0.911
- t1/2, ratio of geometric least squares means 5-minute:1-hour (females): 0.901
- Between-subject variability (CV %) for AUC0-∞ [3]: 8.8%
- Between-subject variability (CV %) for Cmax [3]: 18.8%
- MRTint, geometric least squares mean (females, 1-hour infusion): 29.9 min
- MRTint, geometric least squares mean (females, 5-minute infusion): 25.8 min
- half-life (intravenous, Apparent elimination half life, individual subjects, males, 0.12 to 0.48 mg/kg, 1 hour infusion): 72 to 180 min
- Vd (male, intravenous, Apparent volume of distribution at steady state (VSS), males, 0.12 to 0.48 mg/kg dose range): 19 to 23 L
- clearance (male, intravenous, geometric least squares mean, males, 1-hour infusion, Parts A & B): 557 mL/min
- clearance (male, intravenous, geometric least squares mean, males, 5-minute infusion, Parts A & B): 538 mL/min
- half-life (male, intravenous, Mean apparent elimination half life, males, 0.015 to 0.06 mg/kg, 1 hour infusion): ~42 min
- half-life (male, intravenous, Mean apparent elimination half life, males, 0.03 to 0.09 mg/kg, 5-minute infusion): 60 to 78 min
- half-life (male, intravenous, Mean apparent elimination half life, males, 0.12 to 0.48 mg/kg, 1 hour infusion): 84 to 114 min
- Vd (male, intravenous, Vss, geometric least squares mean, males, 1-hour infusion, Parts A & B): 20.1 L
- Vd (male, intravenous, Vss, geometric least squares mean, males, 5-minute infusion, Parts A & B): 18.1 L
- Vd (male, intravenous, Vz, geometric least squares mean, males, 1-hour infusion, Parts A & B): 59.1 L
- Vd (male, intravenous, Vz, geometric least squares mean, males, 5-minute infusion, Parts A & B): 61 L
- half-life (male, intravenous, t1/2, geometric least squares mean, males, 1-hour infusion, Parts A & B): 75 min
- half-life (male, intravenous, t1/2, geometric least squares mean, males, 5-minute infusion, Parts A & B): 76.8 min
- AUC(0-t) [4]: 30 ng·h/mL
- AUC(0-inf) [4]: 31.4 ng·h/mL
- clearance [4]: 560 mL/min
- Cmax [4]: 27.8 ng/mL
- MRT [4]: 30.7 min
- Vd (male, iv, 0.015 mg/kg, Vss, males, 0.015 mg/kg, 1 hour IV infusion, geometric mean): 17.2 L
- Vd (male, iv, 0.015 mg/kg, Vz, males, 1 hour IV infusion, geometric mean): 33.5 L
- half-life (male, iv, 0.015 mg/kg, t1/2, males, 1 hour IV infusion, geometric mean): 41.5 min
- Tmax (male, iv, 0.015 mg/kg, males, 1 hour IV infusion): 60 min
- AUC(0-t) [5]: 65.9 ng·h/mL
- AUC(0-t) [6]: 70 ng·h/mL
- AUC(0-inf) [5]: 68.4 ng·h/mL
- AUC(0-inf) [6]: 72.5 ng·h/mL
- clearance [5]: 473 mL/min
- clearance [6]: 538 mL/min
- Cmax [5]: 233 ng/mL
- Cmax [6]: 65.3 ng/mL
- MRT [5]: 36.9 min
- MRT [6]: 30.6 min
- Vd (male, iv, 0.03 mg/kg, Vss, males, 0.03 mg/kg, 5-minute IV infusion, geometric mean): 17.4 L
- Vd (male, iv, 0.03 mg/kg, Vss, males, 0.03 mg/kg, 1 hour IV infusion, geometric mean): 16.5 L
- Vd (male, iv, 0.03 mg/kg, Vz, males, 5-minute IV infusion, geometric mean): 53.6 L
- Vd (male, iv, 0.03 mg/kg, Vz, males, 1 hour IV infusion, geometric mean): 34.1 L
- half-life (male, iv, 0.03 mg/kg, t1/2, males, 5-minute IV infusion, geometric mean): 78.6 min
- half-life (male, iv, 0.03 mg/kg, t1/2, males, 1 hour IV infusion, geometric mean): 43.9 min
- Tmax (male, iv, 0.03 mg/kg, males, 5-minute IV infusion): 5 min
- Tmax (male, iv, 0.03 mg/kg, males, 1 hour IV infusion): 60 min
- AUC(0-t) (male, iv, 0.06 mg/kg, males, 5-minute IV infusion, geometric mean): 139 ng·h/mL
- AUC(0-t) (male, iv, 0.06 mg/kg, males, 1 hour IV infusion, geometric mean): 129 ng·h/mL
